{"source": "patent US12343326B2", "about": "“Psychoactive medicines and their use for treating psychiatric and neurological conditions and disorders” (Transcend Therapeutics, Inc., priority 2021, dated 2025)", "tested_on": "participants with PTSD", "assay": "IMPACT-1 Part A open-label study of methylone for PTSD", "assay_type": "in vivo, human", "description": "Brief Summary: This is a two-part study to assess methylone for the management of the symptoms of PTSD. Part A is an open-label, non-controlled assessment in up to 15 evaluable participants with PTSD to assess early safety and efficacy and to confirm procedures included in the blinded portion (Part B) of the study. After completion of Part A, enrollment for Part B will begin in up to 64 participants. Part B is identical to Part A with the exception of the inclusion of a placebo arm in Part B.\nFor each participant in Parts A and B, the study consists of: • Screening Period (Day −28 to Day −4): Informed consent, eligibility assessment, and enrolment of eligible participants. • Baseline/Preparatory Session (Day −3 to Day −1): Baseline assessments, confirmation of eligibility, and a preparatory psychoeducation session leading to enrolment confirmation. • Treatment Period (Day 1 to Day 24): Four weekly dose sessions, with associated remote sessions. The dose sessions last at least 8 hours, or until all effects (physical and psychological) have resolved (whichever is longer). Each dose session is followed by a safety phone call 1 day after dosing and efficacy assessments 2 days after dosing. Each dosing period is video recorded for quality and training purposes. The videos may be reviewed to ensure the Mentor is adhering to the Mentor training. • Follow-Up Period (Day 29 to Day 64): Follow-Up visits for safety and efficacy occur at 1, 2, 3 and 6 weeks post-final study drug administration. In addition, there are Mentor-Led Reflection Sessions 1, 2 and 3 weeks post-final study drug administration. Participants are contacted via telephone on Day 57 (±2 days) for Follow-Up. • Discontinuations: Participants who discontinue prematurely are asked to return for an extra visit to duplicate the 6-week end-of-study (EOS) visit.\nEach dose was given as an initial dose, followed by a second dose 90 minutes later. During the dosing session, participants were accompanied by a trained Mentor who provided non-directive support. After the 4-week treatment period, participants attended follow-up visits at 1, 2, 3, and 6 weeks following the last dose. Safety was assessed via standard measures including adverse events. PTSD symptoms were assessed via Clinician-Administered PTSD Scale for DSM-5 (CAPS-5), depressive symptoms were assessed via Montgomery-Asberg Depression Rating Scale (MADRS). Anti-anxiety efficacy was evaluated using the Anxiety Sub-Scale of MADRS, namely, questions (Items 3, 4, 5, 6) that address four anxiety items (inner tension, reduced sleep, reduced appetite, concentration difficulties) Changes from baseline were analyzed using a paired t-test p-values.\nMethods: The IMPACT-1 study is a multi-center, two-part clinical trial. Part A has completed and was an open-label evaluation involving 14 participants with PTSD. Eligible participants are adults with severe PTSD (CAPS-5≥35) who had failed at least 1 prior treatment (pharmacotherapy and/or psychotherapy) for PTSD. […] Throughout each dosing session, participants were provided non-directive psychological support by a trained mental health practitioner. Following the 4-week treatment period, participants were followed for an additional 6 weeks to evaluate the durability of the therapeutic effect. PTSD symptom improvement was evaluated on the CAPS-5. Functioning was assessed via the 3 domains (school/work, family life, social life) of the Sheehan Disability Scale (SDS). Global improvement was measured by the CGI-I. Safety was assessed by monitoring adverse events, vital signs, and C-SSRS.\nFollowing the 4-week treatment period, participants were followed for an additional 6 weeks to evaluate the durability of the therapeutic effect. […]"}
{"smiles": "CNC(C)C(=O)c1ccc2c(c1)OCO2", "note": "(stereo not shown) [methylone, 3,4-methylenedioxy-N-methylcathinone]", "values": [{"measurement": "CAPS-5 scores decreased by", "setting": "Day 3", "result": 8.4, "unit": "points"}, {"measurement": "MADRS scores decreased by", "setting": "Day 3", "result": 8.2, "unit": "points"}, {"measurement": "drug-related SAEs", "setting": "Safety Population, N = 14", "result": "No drug-related SAEs occurred"}, {"measurement": "participants with absence of Distressing Dreams symptom", "setting": "after treatment", "result": 77, "unit": "%"}, {"measurement": "participants with absence of Reduced Sleep symptom (MADRS)", "setting": "after treatment", "result": 62, "unit": "%"}, {"measurement": "participants with absence of Sleep Disturbances symptom", "setting": "after treatment", "result": 62, "unit": "%"}, {"measurement": "participants much or very much improved (CGI-I)", "setting": "end of the study", "result": "all participants"}]}
